One experiment has as its target hSERT (Homo sapiens, UniProt P31645). The experiment can be described thus: Transporter-mediated monoamine efflux, [3H]-5-HT preloaded HEK293 cells. Particulars: 100 μM of drug, 15 min, HEK293 hSERT preloaded with [3H]-5-HT; data for some pyrovalerones adapted from [13]. Type of experiment: cell-based. Also noted: expressed in transfected cells; host or cells: HEK293. Here is the method:
(§1) Monoamine efflux was assessed using human embryonic kidney 293 (HEK293) cells (Invitrogen, Zug, Switzerland) stably transfected with the human norepinephrine (hNET), dopamine (hDAT), or serotonin (hSERT) uptake transporters. In summary, the cells were seeded in poly-D-lysine coated XF24 cell culture microplates (Seahorse Biosciences, North Billerica, MA, USA) and cultured overnight at a concentration of 100,000 cells per well.
(§2) The cells were then exposed to Krebs–HEPES release buffer (85 μL/well) comprised of 130 mM NaCl, 1.3 mM KCl, 2.2 mM CaCl2, 1.2 mM MgSO4, 1.2 mM KH2PO4, 10 mM HEPES, and 10 mM D-glucose at a pH of 7.5, which also contained 10 nM radiolabelled neurotransmitter ([^3H]-5-HT for SERT, [^3H]-DA for DAT or [^3H]-NE for NET), 1 μM unlabelled neurotransmitter (DA or NE, only), 10 μM pargyline, and 0.2 mg/mL of ascorbic acid. This enabled the loading of the cells with their respective neurotransmitters via the uptake transporters. Afterwards, the release buffer was replaced by fresh buffer to wash the cells twice and the cells were then incubated for 15 min (DAT and SERT) or 45 min (NET) to 100 μM of test drugs dissolved in 1 mL of Krebs–HEPES buffer while shaking at 300 rpm and 37 °C. Termination of the release reaction occurred by removing the buffer from the cells and washing them with ice-cold buffer. Next, 50 μL of lysis buffer was added to the cells for 1 h in order to lyse the cells. Thereafter, 40 μL of the lysed cell mixture was transferred into scintillation vials (Perkin–Elmer, Schwerzenbach, Switzerland) containing 3 mL of scintillation fluid (Ultimagold, Perkin–Elmer, Schwerzenbach, Switzerland) and measured using liquid scintillation (as previously described in Section 2.2).
(§3) To quantify the “pseudo efflux” caused by the non-transporter mediated monoamine release and successive reuptake inhibition, each monoamine efflux experiment included a control where the cells were exposed to each respective transporter blocker (nisoxetine for NET, mazindol for DAT, and citalopram for SERT). The radioactivity inside the cells without any drug was set as 100%. The nonspecific release was subtracted from the total observed release at 100 μM of each examined drug to calculate the specific transporter mediated release. One single concentration of the test drugs was used (100 μM) and release exposure durations were set based on previously evaluated kinetics of the release-over-time curves.
(§4) An ANOVA followed by a Holm–Sidak test was conducted to compare each drug’s specific transporter-mediated efflux based on at least three independent experiments to the control condition.

The target in experiment [1] is T1, hDAT (Homo sapiens, UniProt Q01959). The experiment can be described thus: Transporter-mediated monoamine efflux, [3H]-DA preloaded HEK293 cells. Type of experiment: cell-based. Further details: expressed in transfected cells; host or cells: HEK293. The note with it: 100 μM of drug, 15 min, HEK293 hDAT preloaded with [3H]-DA; data for some pyrovalerones adapted from [13]. Here is the method:
as §1, §2, §3, §4

A further experiment has as its target hNET (Homo sapiens, UniProt P23975). The experiment can be described thus: Transporter-mediated monoamine efflux, [3H]-NE preloaded HEK293 cells. Format: cell-based. Also noted: expressed in transfected cells; host or cells: HEK293. Particulars: 100 μM of drug, 45 min, HEK293 hNET preloaded with [3H]-NE; data for some pyrovalerones adapted from [13]. Here is the method: as §1, §2, §3, §4

The next experiment deals with T2, adrenergic α2A receptor (Homo sapiens, UniProt P08913).
T2 sequence (P08913 1-465): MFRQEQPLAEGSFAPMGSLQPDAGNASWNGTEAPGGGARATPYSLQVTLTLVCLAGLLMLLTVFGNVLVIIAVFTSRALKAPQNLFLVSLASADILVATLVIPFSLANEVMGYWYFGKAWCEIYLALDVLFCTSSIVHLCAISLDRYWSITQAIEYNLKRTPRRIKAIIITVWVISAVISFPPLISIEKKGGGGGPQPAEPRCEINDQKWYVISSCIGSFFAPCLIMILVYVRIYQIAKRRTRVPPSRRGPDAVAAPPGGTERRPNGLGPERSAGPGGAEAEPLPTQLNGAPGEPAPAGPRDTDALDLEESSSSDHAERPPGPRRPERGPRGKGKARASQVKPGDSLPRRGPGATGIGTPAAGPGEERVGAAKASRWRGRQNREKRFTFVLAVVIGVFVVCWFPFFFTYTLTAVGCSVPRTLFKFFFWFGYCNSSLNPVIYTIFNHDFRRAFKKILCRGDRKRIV
The note with it: [3H]-Rauwolscine, cited from earlier work; for Ki: read-out: α2A Receptor Binding Ki ± SD.

The next experiment has as its target T3, adrenergic α1A receptor (Homo sapiens, UniProt P35348).
T3 sequence (P35348 1-466): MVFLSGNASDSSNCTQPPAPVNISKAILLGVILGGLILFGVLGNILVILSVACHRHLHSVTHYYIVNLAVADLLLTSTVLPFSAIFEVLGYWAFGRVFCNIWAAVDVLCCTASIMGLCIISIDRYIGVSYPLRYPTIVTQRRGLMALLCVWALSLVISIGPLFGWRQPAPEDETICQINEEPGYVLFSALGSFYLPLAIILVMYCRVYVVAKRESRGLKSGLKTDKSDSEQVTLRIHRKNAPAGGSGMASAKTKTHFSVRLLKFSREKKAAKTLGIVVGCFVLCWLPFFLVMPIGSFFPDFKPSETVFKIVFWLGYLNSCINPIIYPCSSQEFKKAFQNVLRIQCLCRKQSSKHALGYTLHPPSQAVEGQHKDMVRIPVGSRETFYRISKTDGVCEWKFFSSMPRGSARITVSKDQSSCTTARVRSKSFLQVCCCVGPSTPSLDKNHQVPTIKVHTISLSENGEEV
Particulars: read-out: α1A Receptor Binding Ki ± SD, [3H]-Prazosin, cited from earlier work.

The target of experiment [2] is T1, hDAT. The note with it: read-out: hDAT Receptor Binding Ki ± SD, [3H]-WIN-35,428, cited from earlier work.
A further experiment addresses dopaminergic D2 receptor (Homo sapiens, UniProt P14416). Particulars: read-out: D2 Receptor Binding Ki ± SD, [3H]-Spiperone, cited from earlier work.
The target in a further experiment is Mouse TAAR1. The note with it: [3H]-RO5166017, read-out: Mouse TAAR1 Receptor Binding Ki ± SD, cited from earlier work.
The next experiment concerns the target Rat TAAR1. The note with it: [3H]-RO5166017, cited from earlier work; for Ki: read-out: Rat TAAR1 Receptor Binding Ki ± SD.

“Also recorded” adds a separate entry of the source. Like-named read-outs stand apart in the source and are kept apart here.

hNET, sequence (P23975 whole entry): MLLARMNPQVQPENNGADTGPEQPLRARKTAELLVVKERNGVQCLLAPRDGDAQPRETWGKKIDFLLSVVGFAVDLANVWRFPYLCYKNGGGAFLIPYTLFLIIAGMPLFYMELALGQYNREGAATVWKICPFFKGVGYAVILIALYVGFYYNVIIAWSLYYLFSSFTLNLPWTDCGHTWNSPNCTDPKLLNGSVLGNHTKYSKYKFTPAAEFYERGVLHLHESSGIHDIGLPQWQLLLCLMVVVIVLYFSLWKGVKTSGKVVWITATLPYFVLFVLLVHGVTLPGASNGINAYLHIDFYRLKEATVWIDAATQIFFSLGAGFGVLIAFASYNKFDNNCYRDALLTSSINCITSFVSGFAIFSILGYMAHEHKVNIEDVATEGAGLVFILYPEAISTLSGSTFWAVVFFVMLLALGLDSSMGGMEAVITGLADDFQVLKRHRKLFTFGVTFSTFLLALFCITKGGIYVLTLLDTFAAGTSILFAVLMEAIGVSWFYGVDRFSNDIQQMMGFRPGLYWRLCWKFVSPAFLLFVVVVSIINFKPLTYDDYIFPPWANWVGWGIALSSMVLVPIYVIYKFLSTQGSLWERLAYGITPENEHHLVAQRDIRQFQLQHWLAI
dopaminergic D2 receptor, sequence (P14416 whole entry): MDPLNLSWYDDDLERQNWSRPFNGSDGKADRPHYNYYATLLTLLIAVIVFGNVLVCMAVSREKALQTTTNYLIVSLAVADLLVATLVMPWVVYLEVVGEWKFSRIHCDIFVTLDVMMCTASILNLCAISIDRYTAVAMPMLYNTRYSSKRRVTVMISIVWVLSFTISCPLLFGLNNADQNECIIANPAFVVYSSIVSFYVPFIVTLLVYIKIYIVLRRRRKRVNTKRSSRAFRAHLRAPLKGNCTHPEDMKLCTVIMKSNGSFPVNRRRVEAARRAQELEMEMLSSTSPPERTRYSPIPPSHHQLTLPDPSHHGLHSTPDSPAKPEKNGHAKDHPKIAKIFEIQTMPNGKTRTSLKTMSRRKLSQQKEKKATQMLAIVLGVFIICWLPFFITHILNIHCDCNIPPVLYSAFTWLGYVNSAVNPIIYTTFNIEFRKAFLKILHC
hSERT, sequence (P31645 whole entry): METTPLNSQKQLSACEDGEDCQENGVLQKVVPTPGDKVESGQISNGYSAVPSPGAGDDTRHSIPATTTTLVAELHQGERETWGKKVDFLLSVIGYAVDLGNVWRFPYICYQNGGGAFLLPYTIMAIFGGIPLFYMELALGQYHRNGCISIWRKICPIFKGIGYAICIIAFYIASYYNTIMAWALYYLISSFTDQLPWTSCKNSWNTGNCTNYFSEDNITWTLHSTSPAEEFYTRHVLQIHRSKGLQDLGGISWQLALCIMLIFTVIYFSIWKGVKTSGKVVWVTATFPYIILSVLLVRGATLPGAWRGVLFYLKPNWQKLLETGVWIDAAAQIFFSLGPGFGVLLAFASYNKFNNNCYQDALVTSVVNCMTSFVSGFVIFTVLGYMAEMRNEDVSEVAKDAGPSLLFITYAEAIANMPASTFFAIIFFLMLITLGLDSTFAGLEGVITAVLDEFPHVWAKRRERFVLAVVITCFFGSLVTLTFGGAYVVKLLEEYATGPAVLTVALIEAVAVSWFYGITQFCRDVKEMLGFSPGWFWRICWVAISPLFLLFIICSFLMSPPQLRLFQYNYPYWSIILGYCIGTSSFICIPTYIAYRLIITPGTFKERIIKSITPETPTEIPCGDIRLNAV
T1 sequence (Q01959 whole entry): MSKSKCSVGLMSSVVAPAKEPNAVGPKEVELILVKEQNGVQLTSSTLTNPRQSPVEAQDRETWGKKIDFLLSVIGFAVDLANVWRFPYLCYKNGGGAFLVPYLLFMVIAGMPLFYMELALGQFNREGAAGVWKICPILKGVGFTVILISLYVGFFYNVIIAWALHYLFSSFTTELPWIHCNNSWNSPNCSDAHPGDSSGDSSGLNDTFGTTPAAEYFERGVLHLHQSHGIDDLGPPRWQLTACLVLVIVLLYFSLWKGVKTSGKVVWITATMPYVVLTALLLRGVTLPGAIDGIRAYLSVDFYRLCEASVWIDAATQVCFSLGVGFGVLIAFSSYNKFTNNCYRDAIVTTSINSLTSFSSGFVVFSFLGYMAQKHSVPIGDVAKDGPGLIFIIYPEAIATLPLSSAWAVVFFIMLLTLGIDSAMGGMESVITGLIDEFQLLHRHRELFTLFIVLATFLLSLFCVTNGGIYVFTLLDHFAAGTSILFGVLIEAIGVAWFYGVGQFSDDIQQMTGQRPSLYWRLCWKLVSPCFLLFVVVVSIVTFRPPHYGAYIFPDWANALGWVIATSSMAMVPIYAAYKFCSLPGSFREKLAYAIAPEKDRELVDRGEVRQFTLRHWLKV

In the case of `Cc1ccc(C(=O)C(C)N2CCCC2)cc1` (stereo not drawn) [4-MePPP, 4-methyl-α-pyrrolidinopropiophenone], on hSERT, the “Transporter-mediated monoamine efflux (5-HT) vs citalopram” value is “no monoamine efflux was observed”. Besides, the “Transporter-mediated monoamine efflux (DA) vs mazindol” value on hDAT [1] is given as “no monoamine efflux was observed”. In addition, at hNET, the “Transporter-mediated monoamine efflux (NE) vs nisoxetine” value is on record as “no monoamine efflux was observed”.

For `CCC(C(=O)c1ccc(F)cc1)N1CCCC1` (stereo not drawn) [4F-PBP, 4-fluoro-α-pyrrolidinobutiophenone], the “Transporter-mediated monoamine efflux (5-HT) vs citalopram” value at hSERT is recorded as “did not induce any monoamine efflux”. Also, the “Transporter-mediated monoamine efflux (DA) vs mazindol” value at hDAT [1] was “did not induce any monoamine efflux”. In addition, the “Transporter-mediated monoamine efflux (NE) vs nisoxetine” value on hNET was “did not induce any monoamine efflux”.

Regarding `CCC(C(=O)c1ccc2c(c1)OCO2)N1CCCC1` (stereo not drawn) [MDPBP, 3,4-methylenedioxy-α-pyrrolidinobutiophenone], the “α2A Receptor Binding Ki ± SD” value on adrenergic α2A receptor (ref Rickli et al. (2015)) is on record as “bound the receptor in the low micromolar range”. Further, the Ki – broadly, a dissociation constant, usually derived from enzyme kinetics or from competition with a known ligand – at adrenergic α2A receptor (ref Rickli et al. (2015)) was 9.4 ± 1.6 µM; at adrenergic α1A receptor (ref Rickli et al. (2015)), greater than 4.9 µM; at hDAT [2] (ref Rickli et al. (2015)), 20 ± 2 nM; on dopaminergic D2 receptor (ref Rickli et al. (2015)), greater than 20 µM; on Mouse TAAR1 (ref Rickli et al. (2015)) it was greater than 20 µM; at Rat TAAR1 (ref Rickli et al. (2015)), greater than 20 µM.

In the case of `CC(C(=O)c1ccc2c(c1)OCO2)N1CCCC1` (stereo not drawn) [MDPPP, 3,4-methylenedioxy-α-pyrrolidinopropiophenone], the “α2A Receptor Binding Ki ± SD” value at adrenergic α2A receptor (ref Rickli et al. (2015)) is “bound the receptor in the low micromolar range”. The Ki on adrenergic α2A receptor (ref Rickli et al. (2015)) was 14 ± 0.9 µM; on adrenergic α1A receptor (ref Rickli et al. (2015)), greater than 15 µM; at hDAT [2] (ref Rickli et al. (2015)), 180 ± 50 nM; at dopaminergic D2 receptor (ref Rickli et al. (2015)), greater than 10 µM; at Mouse TAAR1 (ref Rickli et al. (2015)), greater than 20 µM; at Rat TAAR1 (ref Rickli et al. (2015)) it was 16 ± 6.7 µM. Also, the “Rat TAAR1 Receptor Binding Ki ± SD” value at Rat TAAR1 (ref Rickli et al. (2015)) is on record as “bound the rat TAAR1”.

In the case of `CCCC(C(=O)c1ccc2c(c1)OCO2)N1CCCC1` (stereo not shown) [MDPV, 3,4-methylenedioxypyrovalerone], the Ki was greater than 20 µM at adrenergic α2A receptor (ref Simmler et al. (2013)); greater than 6 µM at adrenergic α1A receptor (ref Simmler et al. (2013)); 10 ± 2 nM on hDAT [2] (ref Simmler et al. (2013)); greater than 30 µM at dopaminergic D2 receptor (ref Simmler et al. (2013)); greater than 10 µM at Mouse TAAR1 (ref Simmler et al. (2013)); 7.2 ± 1.1 µM at Rat TAAR1 (ref Simmler et al. (2013)). The “Rat TAAR1 Receptor Binding Ki ± SD” value at Rat TAAR1 (ref Simmler et al. (2013)) was “bound the rat TAAR1”.

For `CCCCC(C(=O)c1ccc(C)cc1)N1CCCC1` (stereo not drawn) [MPHP, 4-methyl-α-pyrrolidinohexanophenone], on hSERT, the “Transporter-mediated monoamine efflux (5-HT) vs citalopram” value was “no monoamine efflux was observed”. Moreover, the “Transporter-mediated monoamine efflux (DA) vs mazindol” value on hDAT [1] is on record as “no monoamine efflux was observed”. The “Transporter-mediated monoamine efflux (NE) vs nisoxetine” value at hNET is recorded as “no monoamine efflux was observed”.

Regarding `CCCCC(NCC)C(=O)c1ccccc1` (stereo not shown) [NEH, N-ethylamine-hexanophenone], the “Transporter-mediated monoamine efflux (5-HT) vs citalopram” value at hSERT was “did not produce any monoamine efflux; also recorded: did not induce any monoamine efflux”. Besides, the “Transporter-mediated monoamine efflux (DA) vs mazindol” value on hDAT [1] is recorded as “did not produce any monoamine efflux; also recorded: did not induce any monoamine efflux”. For the same compound, the “Transporter-mediated monoamine efflux (NE) vs nisoxetine” value at hNET is recorded as “did not produce any monoamine efflux; also recorded: did not induce any monoamine efflux”.

Take `CCCC(C(=O)c1ccc(C)cc1)N1CCCC1` (stereo not shown) [Pyrovalerone, pyrovalerone]: the Ki at adrenergic α2A receptor (ref Simmler et al. (2013)) was greater than 20 µM; on adrenergic α1A receptor (ref Simmler et al. (2013)), greater than 6 µM; on hDAT [2] (ref Simmler et al. (2013)), 30 ± 10 nM; on dopaminergic D2 receptor (ref Simmler et al. (2013)), greater than 30 µM; at Mouse TAAR1 (ref Simmler et al. (2013)) it was greater than 10 µM; at Rat TAAR1 (ref Simmler et al. (2013)) it was greater than 12.5 µM.

As to `CCCCC(C(=O)c1ccccc1)N1CCCC1` (stereo not drawn) [α-PHP, α-pyrrolidinohexanophenone], the “Transporter-mediated monoamine efflux (5-HT) vs citalopram” value at hSERT is on record as “did not induce any monoamine efflux”. The “Transporter-mediated monoamine efflux (DA) vs mazindol” value on hDAT [1] was “did not induce any monoamine efflux”. Further, the “Transporter-mediated monoamine efflux (NE) vs nisoxetine” value on hNET is “did not induce any monoamine efflux”.

Regarding `CC(C(=O)c1ccccc1)N1CCCC1` (stereo not drawn) [α-PPP, α-pyrrolidinopropiophenone], the “Transporter-mediated monoamine efflux (5-HT) vs citalopram” value at hSERT is given as “did not induce any monoamine efflux”. In addition, the “Transporter-mediated monoamine efflux (DA) vs mazindol” value on hDAT [1] is reported as “did not induce any monoamine efflux”. The “Transporter-mediated monoamine efflux (NE) vs nisoxetine” value at hNET is reported as “did not induce any monoamine efflux”.

The values above are taken from article PMC8348686, “The Pharmacological Profile of Second Generation Pyrovalerone Cathinones and Related Cathinone Derivative” (International Journal of Molecular Sciences, 2021).
